The test has as its target HPK1 (MAP4K1) (Homo sapiens, UniProt Q92918). In words: FRET Assay for HPK1 (MAP4K1): one step binding assay, displacement of labeled tracer. The following applies: for inhibition at 1 µM: 1 μM compound; for inhibition at 1 µM / inhibition at 10 µM: FRET ratio 665/620, percent of control; for inhibition at 10 µM: 10 μM compound; for IC50: dose response curve, nonlinear regression. The method, boiled down:
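Percent inhibition at 1.0 and 10.0 μM and IC50 by nonlinear regression were derived from loss of FRET signal versus control. The signal runs from Eu-anti-GST antibody (4 nM) bound to 10 nM HPK1 kinase to Alexa Fluor 647 Kinase Tracer 222 (20 nM), added after a 15-min on-ice compound pre-incubation. Binding then proceeded 1 h at room temperature in HEPES pH 7.5 buffer with 10 mM MgCl2, 1 mM EGTA, 0.01% Brij-35 and 3% DMSO.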

For 23 compounds, inhibition and IC50 results are on record in US20230009626A1 (ICHNOS SCIENCES S.A., priority 2018, published 2023).

Structures are written as SMILES. Structures can show the parent of a compound that is named as a salt.

Chain of HPK1 (MAP4K1) (Q92918 whole entry): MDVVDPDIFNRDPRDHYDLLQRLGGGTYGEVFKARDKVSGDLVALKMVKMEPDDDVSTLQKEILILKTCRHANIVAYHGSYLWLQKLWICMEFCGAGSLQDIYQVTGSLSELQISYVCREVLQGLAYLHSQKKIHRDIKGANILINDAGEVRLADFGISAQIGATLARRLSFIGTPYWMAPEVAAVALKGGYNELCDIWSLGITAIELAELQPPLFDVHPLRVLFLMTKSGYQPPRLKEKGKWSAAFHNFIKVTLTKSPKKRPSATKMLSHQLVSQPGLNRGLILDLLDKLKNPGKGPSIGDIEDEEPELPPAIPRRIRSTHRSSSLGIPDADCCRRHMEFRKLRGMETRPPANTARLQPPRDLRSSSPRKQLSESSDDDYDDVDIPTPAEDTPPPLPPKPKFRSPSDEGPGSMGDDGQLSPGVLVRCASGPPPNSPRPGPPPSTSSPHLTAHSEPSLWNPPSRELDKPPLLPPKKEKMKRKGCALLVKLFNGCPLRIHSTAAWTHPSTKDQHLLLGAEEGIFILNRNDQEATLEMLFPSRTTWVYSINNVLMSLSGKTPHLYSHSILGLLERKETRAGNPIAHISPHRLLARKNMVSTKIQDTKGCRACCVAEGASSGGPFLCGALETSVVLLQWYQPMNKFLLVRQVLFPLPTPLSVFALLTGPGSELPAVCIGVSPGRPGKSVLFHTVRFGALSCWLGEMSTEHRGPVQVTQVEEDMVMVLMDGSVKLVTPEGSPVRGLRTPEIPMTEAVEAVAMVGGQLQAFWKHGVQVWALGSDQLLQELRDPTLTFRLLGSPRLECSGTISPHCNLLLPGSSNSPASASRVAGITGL

As to `COc1cccc(F)c1-c1cc2c(cn1)NC(=O)/C2=C(\Nc1cnn(C)c1)C(C)C` [Example 40, (Z)-5-(2-Fluoro-6-methoxyphenyl)-3-(2-methyl-1-((1-methyl-1H-pyrazol-4-yl)amino)propylidene)-1H-pyrrolo[2,3-c]pyridin-2(3H)-one], the inhibition – broadly, how much of the control response was suppressed – at 1 µM was 81.3%; the inhibition at 10 µM worked out at 92%; the IC50 (commonly the concentration needed to halve the response being measured) lay within 100 to 500 nM.
Consider `C/C(Nc1cc(C)n([C@@H](C)C#N)n1)=C1/C(=O)Nc2cnc(-c3c(C)cccc3F)cc21` [Example 208, (S,Z)-2-(3-((1-(5-(2-Fluoro-6-methylphenyl)-2-oxo-1H-pyrrolo[2,3-c]pyridin-3(2H)-ylidene)ethyl)amino)-5-methyl-1H-pyrazol-1-yl)propanenitrile], for which the inhibition at 1 µM is 79.7% and the IC50 was less than 50 nM.
In the case of `COc1cccc(F)c1-c1ccc2c(c1)/C(=C(\C)Nc1ccc(N3CCN(C)CC3)cc1C)C(=O)N2` [Example 11, (Z)-5-(2-Fluoro-6-methoxyphenyl)-3-(1-((2-methyl-4-(4-methylpiperazin-1-yl)phenyl)amino)ethylidene)indolin-2-one], the inhibition at 1 µM was found to be 73.2%, the inhibition at 10 µM came to 84.4% and the IC50 was in the range of 100 to 500 nM.
For `C/C(Nc1cc(C)n(CC[C@H](C)O)n1)=C1/C(=O)Nc2cnc(-c3cnccc3C)cc21` [Example 195, (S,Z)-3-(1-((1-(3-Hydroxybutyl)-5-methyl-1H-pyrazol-3-yl)amino)ethylidene)-5-(4-methylpyridin-3-yl)-1H-pyrrolo[2,3-c]pyridin-2(3H)-one], the inhibition at 1 µM is 25.1% and the inhibition at 10 µM amounted to 61.1%.
Consider `COc1cc2c(cc1N/C(C)=C1\C(=O)Nc3ccc(-c4c(F)cccc4OC)cc31)CNCC2` [Example 12, (Z)-5-(2-Fluoro-6-methoxyphenyl)-3-(1-((6-methoxy-1,2,3,4-tetrahydroisoquinolin-7-yl)amino)ethylidene)indolin-2-one. PTSA salt], for which the inhibition at 1 µM amounted to 48%, the inhibition at 10 µM stood at 55.8% and the IC50 was more than 500 nM.
With `C/C(Nc1ccc(OC2CCNCC2)nc1)=C1/C(=O)Nc2cnc(-c3cnccc3C)cc21` [Example 84, (Z)-5-(4-Methylpyridin-3-yl)-3-(1-((6-(piperidin-4-yloxy)pyridin-3-yl)amino)ethylidene)-1H-pyrrolo[2,3-c]pyridin-2(3H)-one], the inhibition at 1 µM was 75.2%, the inhibition at 10 µM was 70.4% and the IC50 is less than 50 nM.
As to `COc1cccc(F)c1-c1cc2c(cn1)NC(=O)/C2=C(/C)Nc1cnn([C@H](C)C#N)c1` [Example 171, (R,Z)-2-(4-((1-(5-(2-Fluoro-6-methoxyphenyl)-2-oxo-1H-pyrrolo[2,3-c]pyridin-3(2H)-ylidene)ethyl)amino)-1H-pyrazol-1-yl)propanenitrile], the inhibition at 1 µM is 63.4%, the inhibition at 10 µM turned out to be 77% and the IC50 fell in the range of 50 to 100 nM.
On the same counts, the results for `CCn1cc(N/C(C)=C2\C(=O)Nc3cnc(-c4cnccc4C)cc32)cn1` [Example 50, (Z)-3-(1-((1-Ethyl-1H-pyrazol-4-yl)amino)ethylidene)-5-(4-methylpyridin-3-yl)-1H-pyrrolo[2,3-c]pyridin-2(3H)-one] are 82.8%, 87.9% and less than 50 nM.
Taken in the same sequence, the figures for `COc1cccc(F)c1-c1cc2c(cn1)NC(=O)/C2=C(/C)Nc1ccc(N2CCNCC2)cn1` [Example 124, (Z)-5-(2-Fluoro-6-methoxyphenyl)-3-(1-((5-(piperazin-1-yl)pyridin-2-yl)amino)ethylidene)-1H-pyrrolo[2,3-c]pyridin-2(3H)-one] were 79.6%, 89.7% and less than 50 nM.
On the same counts, the results for `C/C(Nc1cc(C)n(C[C@H](C)O)n1)=C1/C(=O)Nc2cnc(-c3cnccc3C)cc21` [Example 184, (S,Z)-3-(1-((1-(2-Hydroxypropyl)-5-methyl-1H-pyrazol-3-yl)amino)ethylidene)-5-(4-methylpyridin-3-yl)-1H-pyrrolo[2,3-c]pyridin-2(3H)-one] are 70.3%, 75.2% and less than 50 nM.
Regarding `C/C(Nc1cc(C)n([C@H](C)C#N)n1)=C1/C(=O)Nc2cnc(-c3c(C)cccc3F)cc21` [Example 199, (R,Z)-2-(3-((1-(5-(2-Fluoro-6-methylphenyl)-2-oxo-1H-pyrrolo[2,3-c]pyridin-3(2H)-ylidene)ethyl)amino)-5-methyl-1H-pyrazol-1-yl)propanenitrile], the inhibition at 1 µM came out at 71.7% and the IC50 is less than 50 nM.
For `C/C(Nc1ccn([C@H](C)CO)n1)=C1/C(=O)Nc2cnc(-c3cnccc3C)cc21` [Example 137, (R,Z)-3-(1-((1-(1-Hydroxypropan-2-yl)-1H-pyrazol-3-yl)amino)ethylidene)-5-(4-methylpyridin-3-yl)-1H-pyrrolo[2,3-c]pyridin-2(3H)-one], the inhibition at 1 µM is 80.7%, the inhibition at 10 µM was 80.2% and the IC50 is less than 50 nM.
Taken in the same sequence, the figures for `COc1cccc(F)c1-c1ccc2c(n1)/C(=C(\C)Nc1cnn(C)c1)C(=O)N2` [Example 43, (Z)-5-(2-Fluoro-6-methoxyphenyl)-3-(1-((1-methyl-1H-pyrazol-4-yl)amino)ethylidene)-1H-pyrrolo[3,2-b]pyridin-2(3H)-one] were 86.2%, 89.2% and less than 50 nM.
In the case of `C/C(Nc1ccc(N2CCN(C3CC3)CC2)nc1)=C1/C(=O)Nc2cnc(-c3cnccc3C)cc21` [Example 96, (Z)-3-(1-((6-(4-Cyclopropylpiperazin-1-yl)pyridin-3-yl)amino)ethylidene)-5-(4-methylpyridin-3-yl)-1H-pyrrolo[2,3-c]pyridin-2(3H)-one], the inhibition at 1 µM was 68.6%, the inhibition at 10 µM worked out at 73.5% and the IC50 was less than 50 nM.
As to `C/C(Nc1cc(C)n(C(F)F)n1)=C1/C(=O)Nc2cnc(-c3cc(F)ccc3C)cc21` [Example 215, (Z)-3-(1-((1-(Difluoromethyl)-5-methyl-1H-pyrazol-3-yl)amino)ethylidene)-5-(5-fluoro-2-methylphenyl)-1H-pyrrolo[2,3-c]pyridin-2(3H)-one], the inhibition at 1 µM amounted to 67.3% and the IC50 is less than 50 nM.
For the compound `C/C(Nc1cc2n(n1)CCN(C)C2=O)=C1/C(=O)Nc2cnc(-c3cnccc3C)cc21` [Example 127, (Z)-5-Methyl-2-((1-(5-(4-methylpyridin-3-yl)-2-oxo-1H-pyrrolo[2,3-c]pyridin-3(2H)-ylidene)ethyl)amino)-6,7-dihydropyrazolo[1,5-a]pyrazin-4(5H)-onc], the inhibition at 1 µM turned out to be 75.1%, the inhibition at 10 µM was determined as 81.5% and the IC50 is less than 50 nM.
As for `COc1cccc(F)c1-c1cc2c(cn1)NC(=O)/C2=C(/C)Nc1cnn(C(F)F)c1` [Example 65, (Z)-3-(1-((1-(Difluoromethyl)-1H-pyrazol-4-yl)amino)ethylidene)-5-(2-fluoro-6-methoxyphenyl)-1H-pyrrolo[2,3-c]pyridin-2(3H)-one], the inhibition at 1 µM stood at 79.7%, the inhibition at 10 µM amounted to 75.5% and the IC50 was 50 to 100 nM.
For the compound `C/C(Nc1ccc(N2CCOCC2)nc1)=C1/C(=O)Nc2cnc(-c3cnccc3C)cc21` [Example 38, (Z)-5-(4-Methylpyridin-3-yl)-3-(1-((6-morpholinopyridin-3-yl)amino)ethylidene)-1H-pyrrolo[2,3-c]pyridin-2(3H)-one], the inhibition at 1 µM worked out at 93.5% and the IC50 is less than 50 nM.
As to `C/C(Nc1cnn(C)c1)=C1/C(=O)Nc2ccc(-c3cnccc3C)nc21` [Example 62, (Z)-3-(1-((1-Methyl-1H-pyrazol-4-yl)amino)ethylidene)-5-(4-methylpyridin-3-yl)-1H-pyrrolo[3,2-b]pyridin-2(3H)-one], the inhibition at 1 µM is 80.3%, the inhibition at 10 µM is 94.7% and the IC50 was less than 50 nM.
For the compound `C/C(Nc1ccc(N(C)C)nc1)=C1/C(=O)Nc2cnc(-c3cnccc3C)cc21` [Example 109, (Z)-3-(1-((6-(Dimethylamino)pyridin-3-yl)amino)ethylidene)-5-(4-methylpyridin-3-yl)-1H-pyrrolo[2,3-c]pyridin-2(3H)-one], the inhibition at 1 µM was found to be 72.4%, the inhibition at 10 µM came to 83.4% and the IC50 is less than 50 nM.
Taken in the same sequence, the figures for `C/C(Nc1ccn(CC2CC2)n1)=C1/C(=O)Nc2cnc(-c3cnccc3C)cc21` [Example 103, (Z)-3-(1-((1-(Cyclopropylmethyl)-1H-pyrazol-3-yl)amino)ethylidene)-5-(4-methylpyridin-3-yl)-1H-pyrrolo[2,3-c]pyridin-2(3H)-one] were 74.5%, 83.4% and less than 50 nM.
Take `C/C(Nc1cnn(CCN2CCOCC2)c1)=C1/C(=O)Nc2cnc(-c3cnccc3C)cc21` [Example 87, (Z)-5-(4-Methylpyridin-3-yl)-3-(1-((1-(2-morpholinoethyl)-1H-pyrazol-4-yl)amino)ethylidene)-1H-pyrrolo[2,3-c]pyridin-2(3H)-one]: the inhibition at 1 µM was determined as 83.6%, the inhibition at 10 µM is 84.8% and the IC50 was less than 50 nM.
On the same counts, the results for `COc1cccc(F)c1-c1cc2c(cn1)NC(=O)/C2=C(/C)Nc1ccn(CC(C)(C)O)n1` [Example 144, (Z)-5-(2-Fluoro-6-methoxyphenyl)-3-(1-((1-(2-hydroxy-2-methylpropyl)-1H-pyrazol-3-yl)amino)ethylidene)-1H-pyrrolo[2,3-c]pyridin-2(3H)-one] are 80.5%, 84.6% and less than 50 nM.
